From patent US20260028356A1, “1,3,4,7-TETRAHYDRO-2H-PYRROLO[3',2':5,6]PYRIDO[2,3-B][1,4]OXAZEPINE BCL-2 INHIBITORS” (AbbVie Inc., priority 2022, published 2026)
Several values for one entry are separate records, joined by “and”; a condition that tells them apart may be missing. Identical values can stand only once. One block for each molecule: values may come before it.

Experiments:
Molt-4 cells = test: Cell Viability Assay (CellTiter-Glo) in Molt-4 cells (counter screen); type: cell-based; details: 24 hours, 10% Human Serum
Protocol: (§1) The acute lymphoblastic leukemia (ALL) human cell line RS4;11 (ATCC, Manassas VA) was used as the primary human cell line to assess the cellular activity of compound of the present Examples in vitro and their efficacy in vivo. […] The acute lymphoblastic leukemia cell line Molt-4, which is derived from immature T-lymphoid cells (T-ALL), was used as a counter screen assay.
(§2) 3000 Cells (0.1×10^6/mL) were seeded in each well of 384-well plate and were treated for 24 hours in a humidified chamber with 5% CO2. Cell viability was determined by CellTiter-Glo as described by the manufacturer's instructions (Promega Corporation, Madison, WI, USA).

RS4;11 cells = test: Cell Viability Assay (CellTiter-Glo) in RS4;11 cell line; type: cell-based; details: 24 hours, 10% Human Serum
Protocol: as §1, §2

[1] = Bioavailability study: pharmacokinetics after single intravenous or oral dose in mouse; type: in vivo, CD-1 mice (male)
Protocol: Studies were conducted to evaluate the pharmacokinetic profiles of Example 25 herein and Example 2 in WO 2019/040550 after single intravenous or oral dose in mouse. CD-1 mice (male) were obtained from Charles River Laboratories (Wilmington, MA).
The pharmacokinetics of Example 25 herein and Example 2 in WO 2019/040550 were evaluated following single 1 mg/kg intravenous or oral doses in mouse. Example 25 herein and Example 2 in WO 2019/040550 were prepared as a solution in DMSO:Tween 80:PEG-400:Dextrose 5% in Water (5:5:20:70, v/v) for the IV and oral dose mouse studies. The intravenous dose was administered as a slow bolus to the penile vein under isoflurane anesthesia. The oral doses were administrated by gavage. Serial blood samples were obtained […], 0.25, 0.5, 1.0, 4, 6, 9, 12, 24, 32 and 48 hours post dosing and […]. Plasma was separated by centrifugation and stored frozen (<−15° C.) until analysis.
HPLC-MS/MS bioanalytical methods were utilized for the quantitation of Example 25 herein and Example 2 in WO 2019/040550 concentration in plasma. The analytical methods used protein precipitation to extract compound from plasma. All samples were combined with a minimum two volume equivalents of organic solvent containing internal standard, vortexed and then centrifuged to pellet the proteins. Supernatants were used for subsequent analysis by liquid chromatography-tandem mass spectrometry (LC-MS/MS). Studies involving quantitative analysis employed spiked standards in plasma that were processed simultaneously with the samples.
Analytes were separated using reverse phase chromatography on a C8 or C18 column prior to analysis on an API5500m (or higher) mass spectrometer with a Turbo-Ion Spray source. Peak areas were determined using Sciex Analyst™ 1.6 (or higher) software or Sound Analytics DiscoveryQuant™ 2.0 (or higher) software. Actual concentrations (when required) were calculated by regression analysis of the peak area ratio (parent/internal standard) of the spiked standards versus concentrations.
Peak plasma concentrations (Cmax) and the time to peak plasma concentration (Tmax) were determined directly from the plasma concentration data for each animal. The compound plasma concentration data were submitted to multi-exponential curve fitting using WinNonlin software. The area under the plasma concentration-time curve from 0 to t hours after dosing (AUC0-t, t=time of the last measurable plasma concentration) was calculated using the linear trapezoidal rule. The residual area extrapolated to infinity, determined as the final measured plasma concentration (Ct) divided by the terminal plasma elimination rate constant (β), was added to the AUC0-t to produce the total area under the curve (AUC0-∞). The apparent total plasma clearance (CLp) was calculated by dividing the administered dose by the AUC0-∞. Half-life (t1/2) was determined with the following calculation: t1/2=ln (2)/elimination rate constant. The initial volume of distribution (Vc) was calculated as the dose divided by the extrapolated concentration at time=0 (C0). The volume of distribution at steady state, Vss, was estimated as a product of the total plasma clearance (CLp) and the mean residence time (MRT); the terminal-phase volume of distribution, Vβ, was derived from the total plasma clearance value (CLp) divided by the terminal plasma elimination rate constant ((3). Oral bioavailability (F) was calculated as the dose-normalized AUC0-∞ (AUC0-∞/D) from the oral dose divided by the corresponding dose normalized AUC0-∞ from intravenous dosing.

- EC50 (RS4;11 cells): 0.329 nM
Compound: CC1(C)CC(c2ccc(Cl)cc2)=C2CN3CCN(c4ccc(C(=O)NS(=O)(=O)c5ccc(NC[C@@H]6CC[C@@H](O)CO6)c([N+](=O)[O-])c5)c(N5CCCOc6nc7[nH]ccc7cc65)c4)C[C@H]3COCCCO[C@@H]2C1 [Example 27, 4-((4aS,10aR)-14-(4-chlorophenyl)-12,12-dimethyl-1,2,4a,5,8,9,10a,11,13,15-decahydro-7H,12H-benzo[f]pyrazino[2,1-c][1,8]dioxa[4]azacycloundecin-3(4H)-yl)-2-(3,4-dihydro-2H-pyrrolo[3′,2′:5,6]pyrido[2,3-b][1,4]oxazepin-1(7H)-yl)-N-((4-((((2S,5R)-5-hydroxytetrahydro-2H-pyran-2-yl)methyl)amino)-3-nitrophenyl)sulfonyl)benzamide]
- EC50 (Molt-4 cells): 535 nM

Compound: COC1(CNc2ccc(S(=O)(=O)NC(=O)c3ccc(N4CCN5CC6=C(c7ccc(Cl)cc7)CC(C)(C)C[C@H]6OCCCOC[C@@H]5C4)cc3N3CCCOc4nc5[nH]ccc5cc43)cc2[N+](=O)[O-])CCOCC1 [Example 26, 4-((4aS,10aR)-14-(4-chlorophenyl)-12,12-dimethyl-1,2,4a,5,8,9,10a,11,13,15-decahydro-7H,12H-benzo[f]pyrazino[2,1-c][1,8]dioxa[4]azacycloundecin-3(4H)-yl)-2-(3,4-dihydro-2H-pyrrolo[3′,2′:5,6]pyrido[2,3-b][1,4]oxazepin-1(7H)-yl)-N-((4-(((4-methoxytetrahydro-2H-pyran-4-yl)methyl)amino)-3-nitrophenyl)sulfonyl)benzamide]
- EC50 (Molt-4 cells): > 10000 nM

Compound: C[C@H]1CCC(CNc2ccc(S(=O)(=O)NC(=O)c3ccc(N4CCN5CC6=C(c7ccc(Cl)cc7)CC(C)(C)C[C@H]6OCCCOC[C@@H]5C4)cc3N3CCCOc4nc5[nH]ccc5cc43)cc2[N+](=O)[O-])OC1 (stereo partly drawn) [Example 23, 4-((4aS,10aR)-14-(4-chlorophenyl)-12,12-dimethyl-1,2,4a,5,8,9,10a,11,13,15-decahydro-7H,12H-benzo[f]pyrazino[2,1-c][1,8]dioxa[4]azacycloundecin-3(4H)-yl)-2-(3,4-dihydro-2H-pyrrolo[3′,2′:5,6]pyrido[2,3-b][1,4]oxazepin-1(7H)-yl)-N-((4-((((2R,5S)-5-methyltetrahydro-2H-pyran-2-yl)methyl)amino)-3-nitrophenyl)sulfonyl)benzamide]
- EC50 (Molt-4 cells): > 10000 nM

- AUC ([1]; IV 1 mg/kg, individual mouse): 11200 ng·h/mL and 12900 ng·h/mL
- CLp ([1]; IV 1 mg/kg, individual mouse): 1.28 mL/min/kg
- MRT ([1]; IV 1 mg/kg, individual mouse): 10 h
- Vβ ([1]; IV 1 mg/kg, individual mouse): 1.0 L/kg and 0.90 L/kg
- AUC ([1]; PO 1 mg/kg, individual mouse): 4330 ng·h/mL and 4490 ng·h/mL
- Tmax ([1]; PO 1 mg/kg, individual mouse): 4.0 h
- t1/2 ([1]; PO 1 mg/kg, individual mouse): 8.7 h and 10 h
- Tmax ([1]; PO 1 mg/kg, mean): 4.0 h
Compound: CO[C@@H]1CC[C@@H](CNc2ccc(S(=O)(=O)NC(=O)c3ccc(N4CCN5CC6=C(c7ccc(Cl)cc7)CC(C)(C)C[C@H]6OCCCOC[C@@H]5C4)cc3N3CCCOc4nc5[nH]ccc5cc43)cc2[N+](=O)[O-])OC1 [Example 25, 4-((4aS,10aR)-14-(4-chlorophenyl)-12,12-dimethyl-1,2,4a,5,8,9,10a,11,13,15-decahydro-7H,12H-benzo[f]pyrazino[2,1-c][1,8]dioxa[4]azacycloundecin-3(4H)-yl)-2-(3,4-dihydro-2H-pyrrolo[3′,2′:5,6]pyrido[2,3-b][1,4]oxazepin-1(7H)-yl)-N-((4-((((2S,5R)-5-methoxytetrahydro-2H-pyran-2-yl)methyl)amino)-3-nitrophenyl)sulfonyl)benzamide]
